The species named for this assay is Rattus norvegicus. Kind of assay: Inhibition of rat recombinant geranylgeranyltransferase type I expressed in Escherichia coli assessed as residual enzyme activity for geranylgeranylation of K-Ras4B at 50 uM incubated for 30 mins in presence of [3H]GGPP by scintillation counting assay relative to control.

Experimental findings from ChEMBL document CHEMBL4421722, “Inhibitors of protein prenyltransferases” (2013) are described below.

Take `Cc1ccc([C@@H]2C[C@@H](SC3CCCC3)[C@H](C(=O)O)CN2S(=O)(=O)c2ccccc2C)cc1`: the Activity came to 93.5%.
On to `CCCCS[C@@H]1C[C@@H](c2ccc(OC)cc2)N(S(=O)(=O)c2ccccc2C)C[C@H]1C(=O)O`, for which the Activity is 88.8%.
On to `COc1ccc([C@@H]2C[C@@H](SCCC(C)C)[C@H](C(=O)O)CN2S(=O)(=O)c2ccccc2C)cc1`, for which the Activity came to 65.9%.
Turning to `CCCCCCS[C@@H]1C[C@@H](c2ccc(CC)cc2)N(S(=O)(=O)c2ccc(C)cc2)C[C@H]1C(=O)O`, the Activity amounted to 70%.
Regarding `CS(=O)(=O)N1[C@@H](c2ccc(Br)cc2)C(C(=O)O)=CC[C@H]1c1ccccc1`, the Activity was 83.6%.
Consider `CCS[C@@H]1C[C@@H](c2ccc(OC)cc2)N(S(=O)(=O)c2ccc(Cl)cc2)C[C@H]1C(=O)O`, for which the Activity was 72.9%.
For the molecule `COc1ccc([C@@H]2C[C@@H](SCCC(C)C)[C@H](C(=O)O)CN2S(=O)(=O)c2ccc(Cl)cc2)cc1`, the Activity is 81.4%.
On to `CCCCS[C@@H]1C[C@@H](c2ccc(Cl)cc2)N(S(=O)(=O)c2ccccc2C)C[C@H]1C(=O)O`, for which the Activity was determined as 87.5%.
With `Cc1ccc(S(=O)(=O)N2[C@@H](c3cccc(Br)c3)C(C(=O)O)=CC[C@H]2c2ccc(C#N)cc2)cc1`, the Activity was found to be 93.5%.
As for `Cc1ccc(S(=O)(=O)N2C[C@@H](C(=O)O)[C@H](Sc3ccc(Cl)cc3)C[C@H]2c2ccccc2F)cc1`, the Activity worked out at 88.8%.
For `Cc1ccc([C@@H]2C[C@@H](SCC(C)C)[C@H](C(=O)O)CN2S(C)(=O)=O)cc1`, the Activity worked out at 73.1%.
Next, `CCCCS[C@@H]1C[C@@H](c2ccc(C)cc2)N(S(=O)(=O)c2ccc(C)cc2)C[C@H]1C(=O)O`: 82.6%; `COc1ccc([C@@H]2C=CCCN2S(=O)(=O)c2ccc(C)cc2)cc1`: 99.7%.
`O=C(O)C1=CC[C@@H](c2ccc(Cl)cc2)N(S(=O)(=O)c2ccc(Cl)cc2)[C@H]1c1ccc(Cl)cc1`: the Activity was 57.7%.
Take `Cc1ccc([C@@H]2C[C@@H](SCc3ccc(C(C)(C)C)cc3)[C@H](C(=O)O)CN2S(=O)(=O)c2ccccc2)cc1`: the Activity came to 68.1%.
For `Cc1ccc(S(=O)(=O)N2[C@@H](c3ccc(C(C)(C)C)cc3)C(C(=O)O)=CC[C@H]2c2cccc(F)c2)cc1`, the Activity is 77.2%.
For `CCCCCCS[C@@H]1C[C@@H](c2cccc(Br)c2)N(S(=O)(=O)c2ccc(C)cc2)C[C@H]1C(=O)O`, the Activity came to 68.9%.
For `Cc1ccc([C@@H]2C[C@@H](SCCc3ccccc3)[C@H](C(=O)O)CN2S(C)(=O)=O)cc1`, the Activity worked out at 76.9%.
With `COc1ccc([C@@H]2CC=C(C(=O)O)[C@H](c3ccc(F)cc3)N2S(=O)(=O)c2ccc(Cl)cc2)cc1`, the Activity was 67.2%.
For `Cc1ccc(S(=O)(=O)N2[C@@H](c3cccc(C)c3)C(C(=O)O)=CC[C@H]2c2ccc(F)cc2)cc1`, the Activity is 78.1%.
For the molecule `CCCCS[C@@H]1C[C@@H](c2ccccc2)N(S(=O)(=O)c2ccc(C)cc2)C[C@H]1C(=O)O`, the Activity was 93.4%.
To `Cc1ccc(S(=O)(=O)N2[C@@H](c3ccc(F)cc3)C(C(=O)O)=CC[C@H]2c2cccs2)cc1` belongs 62.3%; to `CCCS[C@@H]1C[C@@H](c2cccc(OC)c2)N(S(=O)(=O)c2ccc(C)cc2)C[C@H]1C(=O)O`, 73.9%; to `CS(=O)(=O)N1[C@@H](c2ccc(Br)cc2)C(C(=O)O)=CC[C@H]1c1ccc(Cl)cc1`, 53.6%.
As for `Cc1ccc([C@@H]2C[C@@H](SCC(C)C)[C@H](C(=O)O)CN2S(=O)(=O)c2ccc(C)cc2)cc1`, the Activity was 83.5%.
For the molecule `CCOc1ccc([C@@H]2CC=C(C(=O)O)[C@H](c3ccc(C)cc3)N2S(=O)(=O)c2ccc(C)cc2)cc1`, the Activity was determined as 63.2%.
To `COc1cccc([C@@H]2C[C@@H](SCC(C)C)[C@H](C(=O)O)CN2S(=O)(=O)c2ccc(C)cc2)c1` belongs 64.5%; to `CC(=O)C1=CC[C@@H](c2ccccc2)N(S(=O)(=O)c2ccc(C)cc2)C1`, 98.8%.
As for `CCCCCS[C@@H]1C[C@@H](c2ccc(OC)cc2)N(S(=O)(=O)c2ccccc2)C[C@H]1C(=O)O`, the Activity stood at 94.8%.
On to `C=CCS[C@@H]1C[C@@H](c2cccc(Cl)c2)N(S(=O)(=O)c2ccc(C)cc2)C[C@H]1C(=O)O`, for which the Activity amounted to 46.3%.
Next, `CCCCS[C@@H]1C[C@@H](c2ccc(OC)c(OC)c2)N(S(=O)(=O)c2ccc(C)cc2)C[C@H]1C(=O)O`: 114%; `COc1ccc([C@@H]2C[C@@H](Sc3ccc(C)cc3)[C@H](C(=O)O)CN2S(=O)(=O)c2ccccc2)cc1`: 84.8%.
To `Cc1ccc([C@@H]2CC=C(C(=O)O)[C@H](c3cccc(C)c3)N2S(=O)(=O)c2ccccc2)cc1` belongs 69.8%; to `CCc1ccc([C@@H]2CC=C(C(=O)O)[C@H](c3ccc(Br)cc3)N2S(=O)(=O)c2ccc(C)cc2)cc1`, 69.2%.
To `Cc1ccc([C@@H]2CC=C(C(=O)O)[C@H](c3ccc(Cl)cc3)N2S(=O)(=O)c2ccccc2)cc1` belongs 79.9%; to `COc1ccc([C@@H]2C[C@@H](SCC(C)C)[C@H](C(=O)O)CN2S(=O)(=O)c2ccc(C)cc2)cc1OC`, 91.6%.
`Cc1ccc(S(=O)(=O)N2[C@@H](c3cccc(C)c3)C(C(=O)O)=CC[C@H]2c2cccs2)cc1`: the Activity came out at 68.9%.
`COc1ccc(S[C@@H]2C[C@@H](c3ccc(OC)cc3)N(S(=O)(=O)c3ccc(Cl)cc3)C[C@H]2C(=O)O)cc1`: the Activity was found to be 80.8%.
For `CC(=O)C1=CC[C@@H](c2cccc(Cl)c2)N(S(=O)(=O)c2ccc(C)cc2)C1`, the Activity worked out at 86%.
Turning to `CCc1ccc([C@@H]2C[C@@H](SCc3ccc(C(C)(C)C)cc3)[C@H](C(=O)O)CN2S(=O)(=O)c2ccc(C)cc2)cc1`, the Activity was found to be 64.4%.
`Cc1ccc(S(=O)(=O)N2[C@@H](c3ccc(Cl)cc3)C(C(=O)O)=CC[C@H]2c2ccccc2)cc1`: the Activity is 69.7%.
With `Cc1ccc([C@@H]2C[C@@H](SCC(C)C)[C@H](C(=O)O)CN2S(=O)(=O)c2ccccc2)cc1`, the Activity is 51%.
As for `Cc1ccc(S(=O)(=O)N2[C@@H](c3cccc(Br)c3)C(C(=O)O)=CC[C@H]2c2cccs2)cc1`, the Activity came to 55%.
Next, `CS(=O)(=O)N1[C@@H](c2cccc(Cl)c2)C(C(=O)O)=CC[C@H]1c1ccccc1`: 72.4%; `Cc1ccc(S(=O)(=O)N2[C@@H](c3ccc(Br)cc3)C(C(=O)O)=CC[C@H]2c2cccc(Cl)c2)cc1`: 69.2%.
Consider `COc1ccc([C@@H]2CC=C(C(C)=O)CN2S(=O)(=O)c2ccccc2)cc1`, for which the Activity is 110%.
Turning to `COc1ccc([C@@H]2C[C@@H](Sc3ccccc3)[C@H](C(=O)O)CN2S(=O)(=O)c2ccc(C)cc2)cc1OC`, the Activity was determined as 112%.
With `CCS[C@@H]1C[C@@H](c2ccc(OC)cc2)N(S(=O)(=O)c2ccccc2C)C[C@H]1C(=O)O`, the Activity amounted to 71.1%.
On to `COc1ccc([C@@H]2CC=C(C(=O)O)[C@H](c3cccc(C)c3)N2S(=O)(=O)c2ccc(Cl)cc2)cc1`, for which the Activity was determined as 85.8%.
Consider `CC(C)(C)c1ccc([C@H]2C(C(=O)O)=CC[C@@H](c3ccc(Cl)cc3)N2S(=O)(=O)c2ccc(Cl)cc2)cc1`, for which the Activity was determined as 110%.
To `CCOc1ccc([C@@H]2C[C@@H](SC3CCCC3)[C@H](C(=O)O)CN2S(=O)(=O)c2ccc(C)cc2)cc1` belongs 84.6%.
For `CC(=O)C1=CC[C@@H](c2ccccc2F)N(S(=O)(=O)c2ccc(C)cc2)C1`, the Activity came out at 80.8%.
